Assay [1] addresses T1, Type-1 angiotensin II receptor (Oryctolagus cuniculus) (UniProt P34976).
T1 sequence (whole entry): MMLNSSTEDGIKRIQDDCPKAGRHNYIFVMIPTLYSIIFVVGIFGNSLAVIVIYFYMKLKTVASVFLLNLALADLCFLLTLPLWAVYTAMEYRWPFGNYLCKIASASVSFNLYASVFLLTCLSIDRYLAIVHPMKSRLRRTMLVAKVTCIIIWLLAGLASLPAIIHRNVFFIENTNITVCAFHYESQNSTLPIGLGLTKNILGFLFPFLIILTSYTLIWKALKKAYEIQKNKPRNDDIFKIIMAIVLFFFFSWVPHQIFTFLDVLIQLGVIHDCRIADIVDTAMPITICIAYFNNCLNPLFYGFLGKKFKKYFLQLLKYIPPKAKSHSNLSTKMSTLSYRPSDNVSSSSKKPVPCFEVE
Nature of the assay: (§1) Antagonist activity at angiotensin 2 type-1 receptor in Oryctolagus cuniculus (rabbit) aorta in presence of bovine serum albumin. Details: unit not given here.

Assay [2] deals with T2, Type-1 angiotensin II receptor (Oryctolagus cuniculus, UniProt P34976).
T2 sequence (P34976 whole entry): T1 sequence (whole entry)
Described as §1.

As to `CCCCc1nn(CC(C)C)c(=O)n1Cc1ccc(-c2ccccc2-c2nn[nH]n2)cc1`, the logIC50 in assay [1] came out at 0.505.
With `CCCc1nn(-c2ccccc2[N+](=O)[O-])c(=O)n1Cc1ccc(-c2ccccc2-c2nn[nH]n2)cc1`, in assay [1], the logIC50 is 0.978.
Same read-out and setting: the same measure for `CCCCc1nn(-c2ccccc2OC)c(=O)n1Cc1ccc(-c2ccccc2-c2nn[nH]n2)cc1`: 0.82; for `CCCCc1nn(-c2ccccn2)c(=O)n1Cc1ccc(-c2ccccc2-c2nn[nH]n2)cc1`: 1.9.
On the same count and under the same terms, the same measure for `CCCCc1nn(Cc2cccc(C(=O)OC)c2)c(=O)n1Cc1ccc(-c2ccccc2-c2nn[nH]n2)cc1`: 2.04; for `CCCCc1nn(-c2ccccc2Cc2ccccc2)c(=O)n1Cc1ccc(-c2ccccc2-c2nn[nH]n2)cc1`: 1.04; for `CCCCc1nn(-c2ccccc2Br)c(=O)n1Cc1ccc(-c2ccccc2-c2nn[nH]n2)cc1`: 0.301.
Consider `CCCCc1nn(-c2cccc([N+](=O)[O-])c2)c(=O)n1Cc1ccc(-c2ccccc2-c2nn[nH]n2)cc1`, for which the logIC50 in assay [1] was found to be 1.63.
Regarding `CCCCc1nn(-c2cccc(C)c2)c(=O)n1Cc1ccc(-c2ccccc2-c2nn[nH]n2)cc1`, the logIC50 in assay [1] came out at 1.25.
As to `CCCCc1nn(-c2ccc(C)cc2)c(=O)n1Cc1ccc(-c2ccccc2-c2nn[nH]n2)cc1`, the logIC50 in assay [1] was determined as 1.2.
For the compound `CCCCc1nn(CC(=O)OC)c(=O)n1Cc1ccc(-c2ccccc2-c2nn[nH]n2)cc1`, the logIC50 in assay [1] was 1.23.
On to `CCCCc1nn(CCCC)c(=O)n1Cc1ccc(-c2ccccc2-c2nn[nH]n2)cc1`, for which the logIC50 in assay [1] stood at 0.462.
Take `CCCCc1nn(Cc2ccc(C(=O)OC)cc2)c(=O)n1Cc1ccc(-c2ccccc2-c2nn[nH]n2)cc1`: the logIC50 in assay [1] came to 1.36.
With `CCCCc1nn(-c2ccccc2C(C)C)c(=O)n1Cc1ccc(-c2ccccc2-c2nn[nH]n2)cc1`, the logIC50 in assay [1] amounted to 0.146.
On to `CCCCc1nn(Cc2cccc(C)c2)c(=O)n1Cc1ccc(-c2ccccc2-c2nn[nH]n2)cc1`, for which the logIC50 in assay [1] amounted to 1.08.
Same read-out and setting: the same measure for `CCCCc1nn(-c2c(Cl)cccc2Cl)c(=O)n1Cc1ccc(-c2ccccc2-c2nn[nH]n2)cc1`: 0.763; for `CCCCc1nn(-c2ccc(OC)cc2)c(=O)n1Cc1ccc(-c2ccccc2-c2nn[nH]n2)cc1`: 0.699; for `CCCCc1nn(-c2ccc([N+](=O)[O-])cc2)c(=O)n1Cc1ccc(-c2ccccc2-c2nn[nH]n2)cc1`: 1.9.
`CCCCc1nn(-c2ccccc2N(C)C)c(=O)n1Cc1ccc(-c2ccccc2-c2nn[nH]n2)cc1`: the logIC50 in assay [1] was determined as 0.505.
On to `CCCCc1nn(C)c(=O)n1Cc1ccc(-c2ccccc2-c2nn[nH]n2)cc1`, for which the logIC50 in assay [1] was 1.84.
On the same count and under the same terms, the same measure for `CCCc1nn(-c2ccccc2Cl)c(=O)n1Cc1ccc(-c2ccccc2-c2nn[nH]n2)cc1`: 1.15; for `CCCCc1nn(-c2ccccc2Cl)c(=O)n1Cc1ccc(-c2ccccc2-c2nn[nH]n2)cc1`: 0.38.
Take `CCCCc1nn(-c2ccccc2F)c(=O)n1Cc1ccc(-c2ccccc2-c2nn[nH]n2)cc1`: the logIC50 in assay [1] is 0.886.
Turning to `CCCCc1nn(-c2cccc(Cl)c2)c(=O)n1Cc1ccc(-c2ccccc2-c2nn[nH]n2)cc1`, the logIC50 in assay [1] amounted to 2.08.
On to `CCCCc1nn(-c2ccccc2C)c(=O)n1Cc1ccc(-c2ccccc2-c2nn[nH]n2)cc1`, for which the logIC50 in assay [1] stood at 0.613.
With `CCCCc1nn(-c2ccccc2C(=O)OC)c(=O)n1Cc1ccc(-c2ccccc2-c2nn[nH]n2)cc1`, the logIC50 in assay [1] amounted to 0.748.
Consider `CCCCc1nn(-c2c(F)c(F)c(F)c(F)c2F)c(=O)n1Cc1ccc(-c2ccccc2-c2nn[nH]n2)cc1`, for which the logIC50 in assay [1] is 1.23.
On the same count and under the same terms, the same measure for `CCCCc1nn(-c2ccccc2N)c(=O)n1Cc1ccc(-c2ccccc2-c2nn[nH]n2)cc1`: 2.
As a reminder, the IC50 is the concentration at which inhibition is half-maximal. `CCCCc1nn(Cc2c(F)c(F)c(F)c(F)c2F)c(=O)n1Cc1ccc(-c2ccccc2-c2nn[nH]n2)cc1`: the logIC50 in assay [1] came to 1.5. For the same compound, in assay [2], the IC50 turned out to be 6 nM.
Consider `CCCCc1nn(-c2ccccc2-c2ccccc2)c(=O)n1Cc1ccc(-c2ccccc2-c2nn[nH]n2)cc1`, for which the logIC50 in assay [1] is 0.556.
Take `CCCCc1nn(-c2ccc(F)cc2)c(=O)n1Cc1ccc(-c2ccccc2-c2nn[nH]n2)cc1`: the logIC50 in assay [1] was 1.32.
With `CCCCc1nn(Cc2ccccc2C)c(=O)n1Cc1ccc(-c2ccccc2-c2nn[nH]n2)cc1`, the logIC50 in assay [1] was 1.04.
Take `CCCCc1nn(C(C(=O)O)c2ccccc2)c(=O)n1Cc1ccc(-c2ccccc2-c2nn[nH]n2)cc1` (centres undefined): the logIC50 in assay [1] was 1.83.
Consider `CCCCc1nn(C(C)C)c(=O)n1Cc1ccc(-c2ccccc2-c2nn[nH]n2)cc1`, for which the logIC50 in assay [1] turned out to be 0.886.
As for `CCCCc1nn(Cc2ccccc2C(=O)OC)c(=O)n1Cc1ccc(-c2ccccc2-c2nn[nH]n2)cc1`, the logIC50 in assay [1] worked out at 1.04.
`CCCCc1nn(-c2ccc(CC)cc2)c(=O)n1Cc1ccc(-c2ccccc2-c2nn[nH]n2)cc1`: in assay [1], the logIC50 is 1.43.
For `CCCCc1nn(-c2ccc(Cl)cc2)c(=O)n1Cc1ccc(-c2ccccc2-c2nn[nH]n2)cc1`, the logIC50 in assay [1] is 1.84.
For `CCCCc1nn(-c2ccc(C(=O)OC)cc2)c(=O)n1Cc1ccc(-c2ccccc2-c2nn[nH]n2)cc1`, the logIC50 in assay [1] was 1.52.
Still for that read-out and setting: the same measure for `CCCCc1nn(Cc2ccccc2)c(=O)n1Cc1ccc(-c2ccccc2-c2nn[nH]n2)cc1`: 0.663; for `CCCCCc1nn(-c2ccccc2[N+](=O)[O-])c(=O)n1Cc1ccc(-c2ccccc2-c2nn[nH]n2)cc1`: -0.0315.
In the case of `CCCCc1nnc(O)n1Cc1ccc(-c2ccccc2-c2nn[nH]n2)cc1`, in assay [1], the logIC50 came to 1.78.
On the same count and under the same terms, the same measure for `CCCCc1nn(-c2cccc(OC)c2)c(=O)n1Cc1ccc(-c2ccccc2-c2nn[nH]n2)cc1`: 1.18; for `CCCCCc1nn(-c2ccccc2Cl)c(=O)n1Cc1ccc(-c2ccccc2-c2nn[nH]n2)cc1`: 0.756; for `CCCCc1nn(-c2ccc(OC)cc2[N+](=O)[O-])c(=O)n1Cc1ccc(-c2ccccc2-c2nn[nH]n2)cc1`: -0.131.
Turning to `CCCCc1nn(Cc2ccccc2C(=O)O)c(=O)n1Cc1ccc(-c2ccccc2-c2nn[nH]n2)cc1`, the logIC50 in assay [1] was found to be 2.69.
As for `CCCCc1nn(C(C(=O)OC)c2ccccc2)c(=O)n1Cc1ccc(-c2ccccc2-c2nn[nH]n2)cc1` (centres undefined), the logIC50 in assay [1] was determined as 1.08.
Same read-out and setting: the same measure for `CCCCc1nn(-c2ccccc2C(=O)O)c(=O)n1Cc1ccc(-c2ccccc2-c2nn[nH]n2)cc1`: 2.06; for `CCCCc1nn(CCC)c(=O)n1Cc1ccc(-c2ccccc2-c2nn[nH]n2)cc1`: 0.914; for `CCCCc1nn(C(C)c2ccccc2)c(=O)n1Cc1ccc(-c2ccccc2-c2nn[nH]n2)cc1` (centres undefined): 0.69.
For the compound `CCCCc1nn(CC2CCCCC2)c(=O)n1Cc1ccc(-c2ccccc2-c2nn[nH]n2)cc1`, the logIC50 in assay [1] came out at 0.462.
`CCCCc1nn(C(C)CC)c(=O)n1Cc1ccc(-c2ccccc2-c2nn[nH]n2)cc1` (centres undefined): the logIC50 in assay [1] is 0.255.
On to `CCCCc1nn(CC)c(=O)n1Cc1ccc(-c2ccccc2-c2nn[nH]n2)cc1`, for which the logIC50 in assay [1] was 1.
The same measure, in the same setting: the same measure for `CCCCc1nn(-c2ccccc2C(F)(F)F)c(=O)n1Cc1ccc(-c2ccccc2-c2nn[nH]n2)cc1`: 0.0792.

(Values after ChEMBL document CHEMBL3046459, “Structural insights for 3H-1, -2, -4 triazolinones as angiotensin II receptor antagonists using QSAR techniques” (Med Chem Res, 2010).)
